Experimental data: ChEMBL document CHEMBL5126658, “Talaropeptins A and B, Tripeptides with an N-trans-Cinnamoyl Moiety from the Marine-Derived Fungus Talaromyces purpureogenus CX11” (2022)
Converted amounts (≈) assume the structure as drawn.

Key:
Format in all cases: functional
[1] = system: Cryptococcus neoformans; experiment: Antifungal activity against Cryptococcus neoformans GOYJ11988 assessed as fungal growth inhibition incubated for 24 hrs by serial dilution method
[2] = system: Fusarium oxysporum; experiment: Antifungal activity against Fusarium oxysporum ATCC 28856 assessed as fungal growth inhibition incubated for 24 hrs by serial dilution method
[3] = system: Candida albicans; experiment: Antifungal activity against Candida albicans SC5314 assessed as fungal growth inhibition incubated for 24 hrs by serial dilution method

SMILES | MIC [1] [µg/mL] | MIC [2] [µg/mL] | MIC [3] [µg/mL]
C[C@@H]1C(=O)N2CCC[C@H]2[C@]2(O)O[C@@](C)(NC(=O)/C=C/c3ccccc3)C(=O)N12 | 80 (≈ 208 µM) | 25 (≈ 64.9 µM) | 40 (≈ 104 µM)
C[C@@H]1C(=O)N2CCC[C@H]2[C@]2(O)O[C@@](CO)(NC(=O)/C=C/c3ccccc3)C(=O)N12 | 80 (≈ 199 µM) | 12.5 (≈ 31.1 µM) | 40 (≈ 99.6 µM)
